Like-named read-outs stand apart in the source and are kept apart here.
Columns and labels:
[1] = test system: fruit of grape (variety: Red Globe)
Experimental: (§1) An agent for increasing a sugar content in a fruit (containing Sorbon T-20 as a spreader/sticker at a final concentration of 200 μL/L) diluted with water to have a potassium hydrogen carbonate concentration of 10 g/L was prepared. The mass of fruit of grape (variety: Red Globe) purchased on the market was measured. Then, the prepared agent for increasing a sugar content in a fruit was applied by spraying to the fruit of grape. Then, the fruit of grape was allowed to stand in an air-conditioned greenhouse (temperature: 25° C.), and the mass was measured over time (date of application: Apr. 27, 2011; dates of test: May 2, 2011, May 6, 2011, May 9, 2011, May 11, 2011, May 13, 2011, and May 16, 2011). In addition, as a control, the mass of untreated grape was measured on each date of measurement in the same manner.
On the basis of the measured mass, the estimated amount (cumulative value) of transpiration and the estimated amount of transpiration per day were calculated. The results are shown in Tables 5 and 6 and FIGS. 10 and 11.
Note that the vertical axis in FIG. 10 represents the mass (g) of the fruit of grape on each of the dates of measurement per 100 g of the fruit of grape on the date of application, and the vertical axis in FIG. 11 represents the estimated amount (g) of transpiration on each of the dates of measurement per 100 g of the fruit of grape on the date of application. The estimated amount (g) of transpiration on each of the dates of measurement per 100 g of the fruit of grape on the date of application=(the mass (g) of the fruit of grape on the date of application−the mass (g) of the fruit of grape on the date of measurement)/the mass of the fruit of grape on the date of application×100

[2] = test system: fruit of grape (variety: Steuben); conditions: 10 g/L
Experimental: as §1, with “to contain” for “to have a”, “carbonate at” for “carbonate concentration of”, “(variety: Steuben)” for “(variety: Red Globe)”, “grape. The” for “grape. Then, the”, “application: Feb. 7,” for “application: Apr. 27, 2011; dates of test: May 2, 2011, May 6, 2011, May 9, 2011, May 11, 2011, May 13, 2011, and May 16,”, “each of the dates” for “each date”

[3] = approximately 3 weeks later (19 days later)

## O=C([O-])O.[K+] [Potassium hydrogen carbonate, potassium hydrogen carbonate]
[1]; 5 days later
  Estimated amount (g) of transpiration per 100 g of fruit on date of application: 17.4 g
[1]; 5 days later (applied Apr. 27)
  Mass (g) of fruit per 100 g of fruit on date of application: 82.6 g
[1]; 9 days later
  Estimated amount (g) of transpiration per 100 g of fruit on date of application: 29.5 g
  Mass (g) of fruit per 100 g of fruit on date of application: 70.5 g
[1]; 12 days later
  Estimated amount (g) of transpiration per 100 g of fruit on date of application: 37.2 g
  Mass (g) of fruit per 100 g of fruit on date of application: 62.8 g
[1]; 14 days later
  Estimated amount (g) of transpiration per 100 g of fruit on date of application: 42.6 g
  Mass (g) of fruit per 100 g of fruit on date of application: 57.4 g
[1]; 16 days later
  Estimated amount (g) of transpiration per 100 g of fruit on date of application: 47.9 g
  Mass (g) of fruit per 100 g of fruit on date of application: 52.1 g
[1]; 19 days later
  Estimated amount (g) of transpiration per 100 g of fruit on date of application: 55.3 g
  Mass (g) of fruit per 100 g of fruit on date of application: 44.7 g
[1]; [3]
  mass as % of the mass on the date of application: 44.7%
  ratio of transpiration of the fruit: 55.3%
[2]; 7 days
  increase of amount of transpiration in comparison with untreated: approximately 25%
[2]; 7 days, decrease in mass assumed to be transpiration
  water lost per 100 g of grape: approximately 25 ml
[2]; Feb. 8
  mass of fruit per 100 g on date of application, 1 day later: 96.2 g
[2]; Feb. 9
  mass of fruit per 100 g on date of application, 2 days later: 92.1 g
[2]; Feb. 10
  mass of fruit per 100 g on date of application, 3 days later: 88.6 g
[2]; Feb. 14
  mass of fruit per 100 g on date of application, 7 days later: 74.9 g
[2]; assuming 15% on date of application
  sugar content 7 days later (calculated): 20.0%

Source: patent US10080366B2, “Agent for increasing sugar content in fruit” (RIKEN, priority 2012, dated 2018)
